The values below come from patent US12637468B2, “Substituted [1,2,4]triazolo[4,3-b]pyridazines as GABAA receptor modulators” (SHANGHAI SIMR BIOTECHNOLOGY CO., LTD., priority 2019, dated 2026).

Values after ≈ are worked out from the molar mass of the structure shown.

A short description of data set [1]: Pharmacokinetic experiment on rats: brain entry ratio (brain tissue/plasma concentration ratio). The class given is in vivo. The following applies: rat, male SD rats, po 10 mg/kg, Table 6. As for the experimental part:
The drug concentration ratio of plasma and brain tissue in the pharmacokinetic experiment on rats was used to evaluate the entry of compounds into brain. All rats fasted overnight before administration; the test compounds were dissolved and administered orally (po) to male SD rats, with 3 rats in each group. After administration of the test compounds, blood was collected by jugular vein puncture at 0.5 hours with about 0.25 mL per sample. The whole brain was taken at the same time. The plasma and brain tissue drug concentration were determined by LC-MS/MS method, and the pharmacokinetic parameters were calculated by Phoenix WinNonlin7.0. The dosage was 10 mg/kg, and the vehicle was 5% CMC-Na aqueous solution.

Data set [2] can be described thus: Pharmacokinetic experiment on rats: maximum plasma drug concentration (Cmax). In kind it is in vivo, rat. The following applies: male SD rats, po, 10 mg/kg, vehicle 5% CMC-Na aqueous solution. The method, then: In the pharmacokinetic experiment on rats, the maximum plasma drug concentration (Cmax) was used to evaluate the absorption of the compounds in rats. All rats fasted overnight before administration; the test compounds were dissolved and administered orally (po) to male SD rats, with 3 rats in each group. After administration of the test compounds, blood was collected by jugular vein puncture at […] with about 0.25 mL per sample. The plasma drug concentration was determined by LC-MS/MS method, and the pharmacokinetic parameters were calculated by Phoenix WinNonlin7.0. The dosage was 10 mg/kg, and the vehicle was 5% CMC-Na aqueous solution.

Data set [3] concerns the target T1, α5-GABAA receptor (Homo sapiens, UniProt P18507+P31644).
T1 construct: expressed in transfected cells; host or cells: HEK293, monoclonal stably transfected line
As to the kind of experiment: Cell-level screening: whole cell patch clamp, inverse agonist efficacy on α5-GABAA receptor expressed in HEK293. As to conditions: drug 100 nM, GABA 0.05 μM, HEK293 expressing α5, β3 and γ2 subunits, clamped at −60 mV; read-out: Compound inverse agonist efficacy %. The class given is cell-based. Put shortly: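 Whole-cell patch clamp at −60 mV on HEK293 stably expressing α5β3γ2, pH 7.4 extracellular/CsCl internal solutions. Current evoked by 0.05 μM GABA, then compound in GABA solution; screening at 100 nM, dose-response 0.3–300 nM. Inverse agonist efficacy as % change of GABA current.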
A general note: Patch clamp records ionic current or voltage across a cell membrane.

Data set [4] in a line: Water solubility observed on extraction work-up. The class given is physicochemical. As to conditions: observed on extraction with ethyl acetate at pH=7. As for the experimental part: Methyl 6-[7-methoxy-3-(5-methyl-isoxazol-3-yl)-[1,2,4]triazolo[4,3-b]pyridazin-6-yloxymethyl]-nicotinate (300 mg, 0.75 mmol), 1M lithium hydroxide (1.5 mL, 1.5 mmol) were sequentially added to 10 mL of ethanol, and the mixture was stirred at room temperature for 1 hour. The mixture was added with 0.5 M hydrochloric acid to neutralize to pH=7, diluted with water, extracted with ethyl acetate. […] LC-MS: m/z [M+H]^+=383.

Data set [5] is described as follows: Thermodynamic solubility in simulated intestinal fluid (TS in FaSSIF). As to conditions: thermodynamic from solid, 37° C. The class given is physicochemical. A digest of the protocol: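 About 0.3 mg solid shaken in 1.5 mL FaSSIF-V2 at 1000 rpm, 37° C, 4 hours, in duplicate, then filtered. Filtrate quantified by HPLC-UV against 1 μM-200 μM standards diluted from 10 mM DMSO stock.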

Data set [6] deals with α5-GABAA receptor. As to conditions: cited from earlier work.
For data set [7], the system named is α5-GABAA receptor. The following applies: in vivo; cited from earlier work.
In data set [8] the test system is α5-GABAA receptor. The following applies: in vivo; cited from earlier work. The source holds these as a separate data set.

T1 sequence (P31644 32-462): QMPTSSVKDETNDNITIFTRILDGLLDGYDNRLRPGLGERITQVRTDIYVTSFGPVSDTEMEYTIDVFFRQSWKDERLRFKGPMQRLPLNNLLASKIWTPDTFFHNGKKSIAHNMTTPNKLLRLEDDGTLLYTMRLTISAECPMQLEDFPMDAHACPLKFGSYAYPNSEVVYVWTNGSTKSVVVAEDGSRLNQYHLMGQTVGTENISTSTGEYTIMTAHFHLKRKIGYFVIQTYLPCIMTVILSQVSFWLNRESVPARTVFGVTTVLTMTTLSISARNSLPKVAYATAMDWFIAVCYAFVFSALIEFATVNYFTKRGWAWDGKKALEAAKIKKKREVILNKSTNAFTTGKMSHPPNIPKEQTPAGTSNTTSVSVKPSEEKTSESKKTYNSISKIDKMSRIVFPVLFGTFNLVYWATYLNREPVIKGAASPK
T1 sequence (P28472 26-473 partner): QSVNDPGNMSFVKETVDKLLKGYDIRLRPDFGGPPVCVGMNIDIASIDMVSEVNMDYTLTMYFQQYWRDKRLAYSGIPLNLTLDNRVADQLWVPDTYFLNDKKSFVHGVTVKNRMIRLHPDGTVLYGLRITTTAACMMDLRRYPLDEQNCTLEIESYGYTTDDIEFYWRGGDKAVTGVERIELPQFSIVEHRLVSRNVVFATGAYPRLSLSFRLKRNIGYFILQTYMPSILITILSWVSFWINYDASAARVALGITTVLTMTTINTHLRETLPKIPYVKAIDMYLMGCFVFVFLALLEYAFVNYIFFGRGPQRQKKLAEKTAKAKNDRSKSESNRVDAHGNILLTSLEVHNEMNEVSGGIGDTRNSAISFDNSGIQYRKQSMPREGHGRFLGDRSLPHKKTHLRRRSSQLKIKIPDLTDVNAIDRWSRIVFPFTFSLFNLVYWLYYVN
T1 sequence (P18507 40-467 isoform P18507-1 limits assumed): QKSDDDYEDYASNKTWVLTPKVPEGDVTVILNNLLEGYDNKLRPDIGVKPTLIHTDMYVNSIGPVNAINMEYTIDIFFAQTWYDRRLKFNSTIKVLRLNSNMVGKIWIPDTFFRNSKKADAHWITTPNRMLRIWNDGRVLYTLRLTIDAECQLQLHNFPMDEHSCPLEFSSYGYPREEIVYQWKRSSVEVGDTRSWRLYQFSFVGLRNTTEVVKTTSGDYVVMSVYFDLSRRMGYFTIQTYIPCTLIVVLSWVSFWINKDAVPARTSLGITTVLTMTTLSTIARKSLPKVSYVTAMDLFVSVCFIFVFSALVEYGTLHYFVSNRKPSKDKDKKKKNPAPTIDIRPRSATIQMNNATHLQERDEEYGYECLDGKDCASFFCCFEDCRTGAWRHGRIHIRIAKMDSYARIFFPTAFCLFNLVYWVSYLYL

What is called Kp is tissue or fluid exposure divided by exposure in the circulation. Turning to `Cc1cc(-c2nnc3cc(C(C)(C)C)c(OCc4ccccn4)nn23)no1` [drawing 930, reference compound], the Kp at 0.5 h in data set [1] came out at 0.651. Also, in data set [2], the “Maximum plasma drug concentration” value was 216 ng/mL.

A word on the thermodynamic solubility: it is the concentration in solution at equilibrium with solid. For the compound `COc1cc2nnc(-c3cc(C)on3)n2nc1OCc1ccc(C(=O)O)cn1` [Embodiment 63, 6-(((7-Methoxy-3-(5-methylisoxazol-3-yl)-[1,2,4]triazolo[4,3-b]pyridazin-6-yl)oxy)methyl)nicotinate], the inhibition at 0.1 µM on α5-GABAA receptor [3] is 24.2%. Besides, in data set [4], the water solubility result was “good water solubility”. In data set [5], the solubility (thermodynamic) at 4 h was 307 µg/mL (≈ 803 µM).

Turning to `CCOC(=O)c1ncn2c1[C@@H]1CCCN1C(=O)c1cc(OC)ccc1-2` [L-655,708], in the data set on α5-GABAA receptor [6] (GABA 1 μM, highest concentration of L-655,708), the “suppression of the current” value is listed as 15%. Besides, the “inhibition of the current induced by low concentrations of GABA” value with α5-GABAA receptor [6] (GABA 5, 50 and 500 nM) is recorded as “dose-dependently inhibited”. Further, the “inhibitory effect on the current induced by GABA” value in the data set on α5-GABAA receptor [6] (GABA concentration increased above 1 μM) is “no inhibitory effect”.

As to `Cn1ncnc1COc1nn2c(-c3cc(CO)on3)nncc2c1C(C)(C)C` [MRK016-M3], the “inhibition of (3H)RO-15-1788 binding in the central nervous system” value in the data set with α5-GABAA receptor [7] is listed as “hardly inhibit”.

As for `Cc1cc(-c2nncc3c(C(C)(C)C)c(OCc4ncnn4C)nn23)no1` [MRK-016], the “inhibition of (3H)RO-15-1788 binding in the central nervous system” value in the data set on α5-GABAA receptor [7] was “effectively inhibit”. Also, the “therapeutic effects on the treatment of cognition related diseases in animal models” value in the data set with α5-GABAA receptor [8] is reported as “good therapeutic effects”.

As for `COc1cc2nnc(-c3cc(C)on3)n2nc1OCc1ccccn1` [drawing 928], in data set [1], the concentration ratio (Kp) at 0.5 h came to 0.07. Besides, the “Maximum plasma drug concentration” value in data set [2] turned out to be 1778 ng/mL.

Take `Cc1cc(-c2nnc3c4ccccc4c(OCc4cn(C)nn4)nn23)no1` [α5IA]: the “therapeutic effects on the treatment of cognition related diseases in animal models” value in the data set with α5-GABAA receptor [8] is reported as “good therapeutic effects”.

Take `Cc1cc(-c2nnc3c4ccccc4c(OCc4ccccn4)nn23)no1` [drawing 929, reference compound]: the Kp at 0.5 h in data set [1] was 1.51. Moreover, the “Maximum plasma drug concentration” value in data set [2] was determined as 25.7 ng/ mL ng/mL.
